26 molecules from patent US11512097B2, “Heterocyclic compounds as Delta-5 desaturase inhibitors and methods of use” (Amgen Inc., priority 2019, dated 2022) can be followed below.

In the test the target is T1, Delta-5-Desaturase (D5D), membrane preparations of D5D-overexpressing HEK293 6E cells (Homo sapiens, UniProt O60427).
T1 construct: expressed in transfected cells; host or cells: HEK293 6E cells (membrane preparation)
T1 sequence (O60427 whole entry, species assumed): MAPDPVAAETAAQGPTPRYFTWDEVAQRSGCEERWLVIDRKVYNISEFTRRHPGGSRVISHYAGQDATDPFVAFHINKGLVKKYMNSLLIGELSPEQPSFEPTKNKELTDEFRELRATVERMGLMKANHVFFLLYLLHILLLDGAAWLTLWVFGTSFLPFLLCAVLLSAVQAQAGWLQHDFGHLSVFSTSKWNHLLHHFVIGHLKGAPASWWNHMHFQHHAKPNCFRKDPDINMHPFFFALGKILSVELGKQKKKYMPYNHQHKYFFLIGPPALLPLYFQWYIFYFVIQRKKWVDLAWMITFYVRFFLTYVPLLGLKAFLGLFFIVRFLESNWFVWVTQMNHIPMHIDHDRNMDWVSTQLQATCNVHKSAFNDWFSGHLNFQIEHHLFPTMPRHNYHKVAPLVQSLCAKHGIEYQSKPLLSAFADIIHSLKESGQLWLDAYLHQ
Description: In vitro measurement of Delta-5-Desaturase inhibitory activity using DGLA-CoA and Arachidonyl-CoA mass spectrometric assays. It is filed as biochemical. Particulars: D5D membrane 10 μg/mL, one-hour incubation, average of at least two independent runs. The protocol: In Vitro Measurement of Delta-5-Desaturase Inhibitory Activity Using DGLA-CoA and Arachidonyl-CoA Mass Spectrometric Assays Membrane preparations of D5D-overexpressing HEK293 6E cells were prepared in which the total protein concentration was 5.6 mg/mL. Stock D5D membrane preparations were diluted in D5D assay buffer (25 mM 2-amino-2-(hydroxymethyl)-1,3-propanediol, pH 7.5 containing 10 mM MgCl2, 1 mM octyl glucoside (SigmaAldrich O-8001), 1 mM tris(2-carboxyethyl)phosphine hydrochloride (SigmaAldrich 646547)) to a final D5D membrane concentration of 10 μg/mL in an assay plate containing serially diluted test compounds. To 15 μL of this D5D preparation was added 15 μL of a substrate solution (0.25 mM NADH (nicotinamide adenine dinucleotide, Roche Diag. 10107735001), 0.25 mM adenosine triphosphate (SigmaAldrich A-3377), 0.05 mM coenzyme A hydrate (SigmaAldrich C-4282), and 0.01 mM DGLA (dihomo-g-linolenic acid, Sigma E-4504) in the same D5D assay buffer. After one-hour incubation at ambient temperature acetonitrile (30 μL) was added to quench the reaction and plates were centrifuged for 10 min @ 3,000 rpm. Mass spectrometric analysis involved a Rapidfire 360 SPE system coupled to an ABSciex API4000 Triple Quadrupole mass spectrometer using a C18 SPE cartridge (G9203-80105) with ionization in negative mode (solvent A=100% water; solvent B=100% acetonitrile, each solvent containing 5 mM ammonium acetate). DGLA-CoA and Arachidonyl-CoA were detected by multiple reaction monitoring (MRM) of the doubly charged parent ions at m/z 526.6 and 525.6, respectively. […] Sx is value from unknown sample, So is value from DMSO alone and Sc is value from no enzyme well. For CRC analysis, the % of inhibitions were analysed with 4 Parameter Logistic Model or Sigmoidal Dose-Response Model using XLfit (IDBS, Guilford, UK). The potency of the test item was expressed as IC50 nM, corresponding to the test item concentration able to inhibit the 50% of the enzyme maximal response. IC50 values were averaged values determined by at least two independent runs. The results presented in Table 15 have been generated with the in vitro assay described above. This assay may be used to test any of the compounds described herein to assess and characterize a compound's ability to inhibit D5D.
For the molecule `O=c1c(-c2cnn(CC(F)(F)C(F)(F)F)c2)c(C(F)(F)F)nc2[nH]c(Cl)cn12` [Example 49, 2-chloro-6-[1-(2,2,3,3,3-pentafluoropropyl)-1H-pyrazol-4-yl]-7-(trifluoromethyl)-1H,5H-imidazo[1,2-a]pyrimidin-5-one], the half-maximal inhibitory concentration (IC50) came out at 331 nM.

For the molecule `Cc1cn2c(=O)c(-c3cnn(C[C@@H]4CC4(F)F)c3)c(C(F)(F)F)nc2n1C` (single isomer, unassigned) [Example 110], the 50% inhibitory concentration (IC50) came out at 24.1 nM. Regarding `Cc1cn2c(=O)c(-c3cnn(CC(F)(F)C(F)(F)F)c3)c(C(F)(F)F)nc2n1CC(C)O` (centres unmarked) [Example 64, 1-(2-hydroxypropyl)-2-methyl-6-[1-(2,2,3,3,3-pentafluoropropyl)-1H-pyrazol-4-yl]-7-(trifluoromethyl)-1H,5H-imidazo[1,2-a]pyrimidin-5-one], the IC50 stood at 239 nM.

On to `Cc1cn2c(=O)c(-c3cnn(C[C@@H]4CC4(F)F)c3)c(C(F)(F)F)nc2[nH]1` (single isomer, unassigned) [Example 108], for which the 50% inhibitory concentration (IC50) is 12 nM.

`CN1C(=O)C(C)(C)n2c1nc(C(F)(F)F)c(-c1cnn(CC(F)(F)C(F)(F)F)c1)c2=O` [Example 36, 1,3,3-trimethyl-6-[1-(2,2,3,3,3-pentafluoropropyl)-1H-pyrazol-4-yl]-7-(trifluoromethyl)-1H,2H,3H,5H-imidazo[1,2-a]pyrimidine-2,5-dione] had a half-inhibitory concentration (IC50) of over 67000 nM. In the case of `Cc1cn2c(=O)c(-c3cnn(CC(F)(F)C(F)(F)F)c3)c(C(F)(F)F)nc2n1CC#N` [Example 86, 2-{2-methyl-5-oxo-6-[1-(2,2,3,3,3-pentafluoropropyl)-1H-pyrazol-4-yl]-7-(trifluoromethyl)-1H,5H-imidazo[1,2-a]pyrimidin-1-yl}acetonitrile] it was 10.9 nM; in that of `COCc1nn2c(=O)c(-c3cnn(CC(F)(F)C(F)(F)F)c3)c(C(F)(F)F)nc2s1` [Example 42, 2-(methoxymethyl)-6-[1-(2,2,3,3,3-pentafluoropropyl)-1H-pyrazol-4-yl]-7-(trifluoromethyl)-5H-[1,3,4]thiadiazolo[3,2-a]pyrimidin-5-one], 27.4 nM. Under `O=c1c(-c2cnn(CCC(F)(F)F)c2)c(C(F)(F)F)nc2sc(C3CC3)nn12` [Example 12, 2-cyclopropyl-7-(trifluoromethyl)-6-[1-(3,3,3-trifluoropropyl)-1H-pyrazol-4-yl]-5H-[1,3,4]thiadiazolo[3,2-a]pyrimidin-5-one] stands 248 nM; under `Cc1cn2c(=O)c(-c3cnn(CC(F)(F)C(F)(F)F)c3)c(C(F)(F)F)nc2n1C(C)C` [Example 58, 2-methyl-6-[1-(2,2,3,3,3-pentafluoropropyl)-1H-pyrazol-4-yl]-1-(propan-2-yl)-7-(trifluoromethyl)-1H,5H-imidazo[1,2-a]pyrimidin-5-one], 31.5 nM; under `Cc1cn2c(=O)c(-c3cnn(CC4CC4(F)F)c3)c(C(F)(F)F)nc2[nH]1` (racemic) [Example 76, 6-{1-[(2,2-difluorocyclopropyl)methyl]-1H-pyrazol-4-yl}-2-methyl-7-(trifluoromethyl)-1H,5H-imidazo[1,2-a]pyrimidin-5-one], 26 nM. `COc1cn2c(=O)c(-c3cnn(CCC(F)(F)F)c3)c(C(F)(F)F)nc2n1C` [Example 72, 2-methoxy-1-methyl-7-(trifluoromethyl)-6-[1-(3,3,3-trifluoropropyl)-1H-pyrazol-4-yl]-1H,5H-imidazo[1,2-a]pyrimidin-5-one] gave a half-maximal inhibitory concentration (IC50) of 135 nM. Against the preceding molecule, the IC50 is about 5.2-fold higher. In the case of `Cc1csc2nc(C(F)(F)F)c(-c3cnn(CC(F)(F)C(F)(F)F)c3)c(=O)n12` [Example 5, 3-methyl-6-[1-(2,2,3,3,3-pentafluoropropyl)-1H-pyrazol-4-yl]-7-(trifluoromethyl)-5H-[1,3]thiazolo[3,2-a]pyrimidin-5-one] it was 482 nM; in that of `O=c1c(-c2cnn(CC(F)(F)C(F)(F)F)c2)c(C(F)(F)F)nc2scc(C(F)(F)F)n12` [Example 6, 6-[1-(2,2,3,3,3-pentafluoropropyl)-1H-pyrazol-4-yl]-3,7-bis(trifluoromethyl)-5H-[1,3]thiazolo[3,2-a]pyrimidin-5-one], 271 nM. In the case of `Cc1nn2c(=O)c(-c3cnn(CC4CC4(F)F)c3)c(C(F)(F)F)nc2s1` (centres unmarked) [Example 23, 6-{1-[(2,2-difluorocyclopropyl)methyl]-1H-pyrazol-4-yl}-2-methyl-7-(trifluoromethyl)-5H-[1,3,4]thiadiazolo[3,2-a]pyrimidin-5-one] it was 158 nM; in that of `Cc1cn2c(=O)c(-c3cnn(CC(F)(F)C(F)(F)F)c3)c(C(F)(F)F)nc2n1-c1ccccc1` [Example 100, 2-methyl-6-[1-(2,2,3,3,3-pentafluoropropyl)-1H-pyrazol-4-yl]-1-phenyl-7-(trifluoromethyl)-1H,5H-imidazo[1,2-a]pyrimidin-5-one], 4120 nM; in that of `COCc1cn2c(=O)c(-c3cnn(CC(F)(F)C(F)(F)F)c3)c(C(F)(F)F)nc2n1C` [Example 55, 2-(methoxymethyl)-1-methyl-6-[1-(2,2,3,3,3-pentafluoropropyl)-1H-pyrazol-4-yl]-7-(trifluoromethyl)-1H,5H-imidazo[1,2-a]pyrimidin-5-one], 210 nM. Under `Cn1cnn2c(=O)c(-c3cnn(CC(F)(F)C(F)(F)F)c3)c(C(F)(F)F)nc12` [Example 38, 3-methyl-6-[1-(2,2,3,3,3-pentafluoropropyl)-1H-pyrazol-4-yl]-5-(trifluoromethyl)-3H,7H-[1,2,4]triazolo[1,5-a]pyrimidin-7-one] stands 67.3 nM. With `O=c1c(-c2cnn(CC(F)(F)C(F)(F)F)c2)c(C(F)(F)F)nc2sc(F)cn12` [Example 7, 2-fluoro-6-[1-(2,2,3,3,3-pentafluoropropyl)-1H-pyrazol-4-yl]-7-(trifluoromethyl)-5H-[1,3]thiazolo[3,2-a]pyrimidin-5-one], the half-maximal inhibitory concentration (IC50) was 1.3 nM. In turn, `Cc1cn2c(=O)c(-c3cnn(CCC(F)(F)F)c3)c(C(F)(F)F)nc2n1CCN(C)C` [Example 67, 1-[2-(dimethylamino)ethyl]-2-methyl-7-(trifluoromethyl)-6-[1-(3,3,3-trifluoropropyl)-1H-pyrazol-4-yl]-1H,5H-imidazo[1,2-a]pyrimidin-5-one] gave an IC50 of 1480 nM.

Regarding `Cc1nn2c(=O)c(-c3ccn(CC(F)(F)C(F)(F)F)n3)c(C(F)(F)F)nc2s1` [Example 30, 2-methyl-6-[1-(2,2,3,3,3-pentafluoropropyl)-1H-pyrazol-3-yl]-7-(trifluoromethyl)-5H-[1,3,4]thiadiazolo[3,2-a]pyrimidin-5-one], the IC50 is 17900 nM. Under `Cc1cn2c(=O)c(-c3cnn(CC4CC4)c3)c(C(F)(F)F)nc2n1C` [Example 61, 6-[1-(cyclopropylmethyl)-1H-pyrazol-4-yl]-1,2-dimethyl-7-(trifluoromethyl)-1H,5H-imidazo[1,2-a]pyrimidin-5-one] stands 73.7 nM; under `Cc1cn2c(=O)c(-c3cnn(CC(F)(F)C(F)(F)F)c3)c(C(F)(F)F)nc2s1` [Example 4, 2-methyl-6-[1-(2,2,3,3,3-pentafluoropropyl)-1H-pyrazol-4-yl]-7-(trifluoromethyl)-5H-[1,3]thiazolo[3,2-a]pyrimidin-5-one], 17.8 nM.

Molecule `O=c1c(-c2cnn(CC(F)(F)C(F)(F)F)c2)c(C(F)(F)F)nc2sc(Cl)cn12` [Example 9, 2-chloro-6-[1-(2,2,3,3,3-pentafluoropropyl)-1H-pyrazol-4-yl]-7-(trifluoromethyl)-5H-[1,3]thiazolo[3,2-a]pyrimidin-5-one] had a concentration for half-maximal inhibition (IC50) of 6.4 nM.

Take `Cc1nn2c(=O)c(-c3cnn(CC4COC4)c3)c(C(F)(F)F)nc2s1` [Example 29, 2-methyl-6-{1-[(oxetan-3-yl)methyl]-1H-pyrazol-4-yl}-7-(trifluoromethyl)-5H-[1,3,4]thiadiazolo[3,2-a]pyrimidin-5-one]: half-maximal inhibition (IC50) was put at 1580 nM. Under `COCc1cn2c(=O)c(-c3cnn(CCC(F)(F)F)c3)c(C(F)(F)F)nc2n1C` [Example 63, 2-(methoxymethyl)-1-methyl-7-(trifluoromethyl)-6-[1-(3,3,3-trifluoropropyl)-1H-pyrazol-4-yl]-1H,5H-imidazo[1,2-a]pyrimidin-5-one] stands 160 nM. Under `CNCc1nn2c(=O)c(-c3cnn(CC(F)(F)C(F)(F)F)c3)c(C(F)(F)F)nc2s1` [Example 106, 2-[(methylamino)methyl]-6-[1-(2,2,3,3,3-pentafluoropropyl)-1H-pyrazol-4-yl]-7-(trifluoromethyl)-5H-[1,3,4]thiadiazolo[3,2-a]pyrimidin-5-one] stands 61500 nM.

One may read the IC50 as the concentration at which inhibition is half-maximal.
